According to EP2954896A1, “Small molecule inhibitors of the E3 Ligase Skp2 in depression and other diseases” (Max-Planck-Gesellschaft zur Förderung der Wissenschaften …, priority 2014, dated 2015):

Legend:
[1] = system: primary rat cortical astrocytes; experiment: MTT cytotoxicity assay in primary rat cortical astrocytes; format: cell-based
Experimental: (§1) Enriched astroglial cultures were prepared from postnatal day 1 rat pups (Sprague-Dawley, Charles River, Sulzfeld, Germany) and handled as described by Attwood BK et al. (2011) Nature 473: 372-375 and Hartmann J et al. (2012) Neuropharmacology 62: 332-339.
In an effort to find a small molecule to inhibit the E3 ligase Skp2 three promising candidates of published chemical genetic screens were tested on cellular toxicity and its potency to stabilise Beclin1. Cytotoxicity was determined by an MTT assay performed in HEK 293 cell and in primary rat cortical astrocytes. Effects of small compounds on Beclin1 and p27 protein levels were determined by Western analysis of HEK 293 primary rat cortical astrocytic lysates (see Fig. 6).

[2] = system: Beclin1; experiment: Western analysis of Beclin1 and p27 protein levels in HEK 293 and astrocytic lysates; format: cell-based; settings: HEK 293 and primary rat cortical astrocytic lysates
Experimental: (§2) Western blot analysis was performed on eluates from ColPs or with protein extracts from cells or tissue. Protein extracts were obtained by lysing cells or tissue (prelysed as described in the paragraph before) in 62.5 mM Tris, 2% SDS and 10% sucrose, supplemented with protease (Sigma, P2714) and phosphatase (Roche, 04906837001) inhibitor cocktail. Samples were sonicated and heated at 95 °C for 5 min. Proteins were separated by SDS-PAGE and electro-transferred onto nitrocellulose membranes. Blots were placed in Tris-buffered saline, supplemented with 0.05% Tween (Sigma, P2287) and 5% non-fat milk for 1 h at room temperature and then incubated with primary antibody (diluted in TBS/0.05% Tween) overnight at 4 °C. […]

[3] = system: Beclin1; experiment: Western analysis of Beclin1 protein level in primary rat cortical astrocytes; format: cell-based
Experimental: as §2

[4] = system: Beclin1; experiment: Protein levels in brain extracts (hippocampus, prefrontal cortex) of SMIP004-treated mice; format: in vivo, C57BL/6 mice; settings: various cell types; brain lysates of animals treated with SMIP004 (0.5 or 5 mgkg-1)
Experimental: as §2
Furthermore the neuronal activity in CA1 hippocampus was measured after treatment with SMIP004 (Figure 7). […] And protein levels were determined in extracts of the hippocampus and the prefrontal cortex.

[5] = system: CA1 neuronal activity; experiment: Voltage-sensitive dye imaging (VSDI) of evoked CA1 neuronal activity in brain slices; settings: 10 µM SMIP004, 1 h after wash in; slices from C57BL/6 mice
Text: Brain slices were obtained from 11-18 week-old male FKBP51+/+ and FKBP51-/- litter mates (Fig. 1) or from BL6 mice (Fig. 7). […] Four acquisitions subsequently recorded at intervals of 5 s were averaged. Neuronal activity was evoked by square pulse electrical stimuli (200 µs pulse width) delivered via a custom-made monopolar tungsten electrode to the Schaffer collateral-commissural pathway. The circular ROI was placed into the CA1 stratum radiatum near the stimulation electrode. The ROI also covered a part of the adjacent CA1 stratum pyramidale (Fig. 1 B). The intensity of voltage stimulation was adjusted to produce FDSs with peak amplitudes of ~30% of the highest attainable value.
Hippocampal CA3-CA1 synapses were electrically stimulated in brain slices from Fkbp51^+/+ and Fkbp51^-/- mice, and CA1 neuronal activity was monitored by means of voltagesensitive dye imaging (VSDI).

[6] = Tail suspension test; format: in vivo; settings: C57BL/6 mice; SMIP004 0.5 or 5 mgkg-1; paroxetine 10 mgkg-1 as comparator
[7] = system: soluble Aβ; experiment: Aβ42 ELISA in Alzheimer model mice (TG2576); format: in vivo, TG2576 animals; settings: 5mg/kg daily intraperitoneal for 3 months
Experimental: (§3) TG2576 animals (used as Alzheimer's disease model, overexpress a mutant form of amyloid precursor protein (APP)) were chronically treated with daily intraperitoneal injections of SMIP004 (N-(4-butyl-2-methylphenyl)acetamide; 5mg/kg) or vehicle (0.9% NaCl; 1.25% DMSO) for 3 months. Brain and other tissue was analyzed for markers of autophagy and for the levels of soluble beta-amyloid (Aβ). It is commonly assumed that Aβ agglomerates are causally linked to Alzheimer's disease.

[8] = system: APP-CTF; experiment: APP-CTF Western blot in brain extracts of Alzheimer model mice (TG2576); format: in vivo, TG2576 animals; settings: 5mg/kg daily intraperitoneal for 3 months
Experimental: (§4) For the precipitation of Beclin1 from brain tissue (Fig. 15), the tissue was first homogenized (300µL of Buffer I (50 mM Tris (pH 7.5), 150 mM NaCl, 5 mM EDTA, Protease inhibitor Mix (Sigma , P2714), Phosphatase Inhibitor (Roche, 04906837001)) followed by sonication and addition of 300µL of Buffer II (50 mM Tris (pH 7.5), 150 mM NaCl, 1% NP40, 1% Deoxycholate, 2% SDS, Protease inhibitor Mix (Sigma , P2714), Phosphatase Inhibitor (Roche, 04906837001)).
as §2, with “membranes.” for “membranes. Blots were placed in Tris-buffered saline, supplemented with 0.05% Tween (Sigma, P2287) and 5% non-fat milk for 1 h at room temperature and then incubated with primary antibody (diluted in TBS/0.05% Tween) overnight at 4 °C.”
as §3, with “It is commonly assumed that Aβ agglomerates are causally linked to Alzheimer's disease.” left out

[9] = system: autophagy; experiment: Autophagy markers (Western blot, Beclin1 immunoprecipitation) in brain extracts of Alzheimer model mice (TG2576); format: in vivo, TG2576 animals; settings: 5mg/kg daily intraperitoneal for 3 months
Experimental: as §4
as §2, with “membranes.” for “membranes. Blots were placed in Tris-buffered saline, supplemented with 0.05% Tween (Sigma, P2287) and 5% non-fat milk for 1 h at room temperature and then incubated with primary antibody (diluted in TBS/0.05% Tween) overnight at 4 °C.”
as §3, with “It is commonly assumed that Aβ agglomerates are causally linked to Alzheimer's disease.” left out

[10] = system: Beclin1 mRNA; experiment: Beclin1 mRNA expression by qPCR in rat cortical astrocytes; format: cell-based; settings: 10µM for 72h; vehicle set to 1
Experimental: as §1
Total RNA was isolated from astroglial cells according to the manufacturer's protocol of NucleoSpin RNA II (Macherey-Nagel, Germany). In total, 300 ng of purified RNA was reverse transcribed using random primers (Promega) and Omniscript® Reverse Transcriptase (Qiagen). Based on the LightCycler® System (Roche Applied Science, Germany) and SYBR green detection (QuantiFast® SYBR Green; Qiagen), quantitative assessment of Beclin1 cDNA levels were performed. b-Actin PCR was performed serving as endogenous control for normalization. The primers used were: for Beclin1: antisense - 5'-[…]-3' sense - 5'-[…]-3'; and for β-Actin: antisense - 5'-[…]-3', sense-5'-[…]-3'. Relative changes of gene expression were calculated using the comparative ΔΔCT method (Livak and Schmittgen, METHODS 25, 402-408, 2001). Detection of viral RNA by real-time PCR was as recently described (Corman et al. (2014) Journal of Clinical Virology 60: 168-171).
Beclin1 mRNA expression levels were determined by qPCR. HEK cells were treated either with proteasome inhibitor MG132 or with vehicle for 5h and Beclin1 protein levels were determined by Western analysis. Furthermore Co-immunoprecipitations were performed with Beclin1 antibody in HEK cell lysates with ectopic Ub-GFP.

[11] = Forced swim test after acute antidepressant injection in Fkbp51+/+ and Fkbp51-/- mice; format: in vivo; settings: FKBP51 WT versus FKBP51 KO mice; 10 mg kg-1 intraperitoneal
Experimental: The Fkbp51^-/- mouse line was previously generated (Touma C et al. (2011) Biol. Psychiatry 70: 928-936) and fully backcrossed to C57/BI6. […] Hippocampus and prefrontal cortex were extracted. […] Male mice (age 10-16 weeks) were injected intraperitoneally with a single dose of either AMI (10 mg kg^-1) or saline vehicle. […] Another subgroup (WT n=5, KO n=5) was sacrificed, and brain tissue and blood was sampled for analysis of drug concentrations. […] The inventors performed an additional forced swim test administering the antidepressant amitriptyline in FKBP51 WT and FKBP51 KO mice (Fig. 1 B).

[12] = system: autophagy markers; experiment: Autophagy markers in protein extracts of hippocampus and prefrontal cortex after acute antidepressant injection; format: in vivo, mice; settings: FKBP51 WT versus FKBP51 KO mice; 10 mg kg-1
Experimental: Western blot analysis was performed on eluates from ColPs or with protein extracts from cells or tissue. Protein extracts were obtained by lysing cells or tissue (prelysed as described in the paragraph before) in 62.5 mM Tris, 2% SDS and 10% sucrose, supplemented with protease (Sigma, P2714) and phosphatase (Roche, 04906837001) inhibitor cocktail. Samples were sonicated and heated at 95 °C for 5 min. Proteins were separated by SDS-PAGE and electro-transferred onto nitrocellulose membranes. Blots were placed in Tris-buffered saline, supplemented with 0.05% Tween (Sigma, P2287) and 5% non-fat milk for 1 h at room temperature and then incubated with primary antibody (diluted in TBS/0.05% Tween) overnight at 4 °C. The following primary antibodies were used: Beclin1 (1:1000, Cell Signaling, #3495), Atg12 (1:1000, Cell Signaling #2010), LC3B-I/II (1:1000, Cell Signaling, #2775), FLAG (1:7000, Rockland, 600-401-383), FKBP51 (1:1000, Bethyl, A301-430A), Akt (1:1000, Cell Signaling, #4691), pAkt (1:1000, Ser473, T308, 1:1000, Cell Signaling, #4058, #9275), Actin (1:5000, Santa Cruz Biotechnologies, sc-1616), Skp2, myc (Addgene, 19947), GFP (santa cruz biotechnologies, sc-8334), p27 (cell signaling technologies, 3686), pULK,(S757, cell signaling technologies, 6888) APP-CTF (sigma-aldrich, A8717), DNMT1 (1:1000, Imgenex, IMG-261A), phospho-DNMT1 (S154), (1:1000, Abnova, PAB4924), ptau (S622; Santa Cruz Biotechnologies, #sc-16938).
Subsequently, blots were washed and probed with the respective horseradish peroxidase- or fluorophore-conjugated secondary antibody for 1 h at room temperature. The immuno-reactive bands were visualized either using ECL detection reagent (Millipore, Billerica, MA, USA, WBKL0500) or directly by excitation of the respective fluorophore. Determination of the band intensities were performed with BioRad, ChemiDoc MP, or X-ray-films.
The Fkbp51^-/- mouse line was previously generated (Touma C et al. (2011) Biol. Psychiatry 70: 928-936) and fully backcrossed to C57/BI6. […] Hippocampus and prefrontal cortex were extracted.

Compound	cytotoxic effects (MTT assay) [1]	stabilization of Beclin1 (protein level, Western analysis) [2]	effect on Beclin1 protein level [3]	Beclin1 stabilization confirmed in other cell types and mice brain lysates [4]	synaptic neurotransmission (CA1 FDSs, VSDI) [5]	antidepressant-like behavior in the tail suspension test [6]	levels of soluble Aβ in plasma and CSF [7]	levels of APP-CTF in the brain [8]	induction of autophagy (p27, Beclin1, Atg12, pULK S757; Beclin1 ubiquitinylation, Vps34 association) [9]	Beclin1 mRNA expression level [10]	behavioral effects, forced swim test [11]	effects on autophagy markers [12]
CCCCc1ccc(NC(C)=O)c(C)c1 [SMIP004, N-(4-butyl-2-methylphenyl)acetamide]	very low cytotoxic effects	potent stabilizer of Beclin1	particularly strong	confirmed in various cell types as well as in mice brain lysates	increased synaptic neurotransmission similarly to paroxetine	antidepressant-like behavior comparable to animals treated with paroxetine	reduces the levels of soluble Aβ in plasma and CSF	reduces the levels of APP-CTF in the brain	induces autophagy, independently of the mTOR-ULK1 cascade	–	–	–
CNCCC(Oc1ccc(C(F)(F)F)cc1)c1ccccc1 (stereo not shown) [fluoxetine]	–	–	–	–	–	–	–	–	–	do not change Beclin1-mRNA	–	–
CN(C)CCC=C1c2ccccc2CCc2ccccc21 [amitriptyline]	–	–	–	–	–	–	–	–	–	do not change Beclin1-mRNA	only observed in FKBP51 WT mice but not in FKBP51 KO mice	only observed in FKBP51 WT mice but not in FKBP51 KO mice
